# Results published in US20160237044A1, “SUBSTITUTED PHENYLALANINE DERIVATIVES” (BAYER PHARMA AKTIENGESELLSCHAFT, priority 2013, published 2016).
# Counter-ions that a name gives are not always drawn. Like-named read-outs stand apart in the source and are kept apart here.
# Key:
# human factor XIa = molecular target: T1, human factor XIa (Homo sapiens, UniProt P03951); assay: Measurement of FXIa inhibition (fluorogenic peptide substrate Boc-Glu(OBzl)-Ala-Arg-AMC); format: biochemical
# T1 construct: purchased Kordia
# T1 sequence (P03951 388-625 limits assumed): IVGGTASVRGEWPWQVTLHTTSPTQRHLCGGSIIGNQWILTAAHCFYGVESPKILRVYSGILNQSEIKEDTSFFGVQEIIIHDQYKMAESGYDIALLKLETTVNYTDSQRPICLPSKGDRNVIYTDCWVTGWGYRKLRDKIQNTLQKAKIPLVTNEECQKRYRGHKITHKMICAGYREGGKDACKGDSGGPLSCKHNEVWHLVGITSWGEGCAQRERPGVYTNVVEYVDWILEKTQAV
# T1 sequence (P03951 19-387 partner limits assumed): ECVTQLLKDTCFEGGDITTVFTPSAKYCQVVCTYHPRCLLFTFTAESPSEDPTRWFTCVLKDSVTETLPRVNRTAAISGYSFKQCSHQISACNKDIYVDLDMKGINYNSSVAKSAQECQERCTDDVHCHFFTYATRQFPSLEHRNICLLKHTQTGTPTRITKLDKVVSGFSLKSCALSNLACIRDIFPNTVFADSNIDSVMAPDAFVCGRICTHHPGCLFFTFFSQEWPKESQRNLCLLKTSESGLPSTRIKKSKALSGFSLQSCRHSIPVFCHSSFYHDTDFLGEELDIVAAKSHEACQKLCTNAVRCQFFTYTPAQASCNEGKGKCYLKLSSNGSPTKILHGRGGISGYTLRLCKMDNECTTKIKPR
# Protocol: a.1) Measurement of FXIa Inhibition
# The factor XIa inhibition of the substances according to the invention is determined using a biochemical test system which utilizes the reaction of a peptidic factor XIa substrate to determine the enzymatic activity of human factor XIa. Here, factor XIa cleaves from the peptic factor XIa substrate the C-terminal aminomethylcoumarin (AMC), the fluorescence of which is measured. The determinations are carried out in microtitre plates.
# In each case 1 μl of the diluted substance solutions is placed into the wells of white microtitre plates from Greiner (384 wells). […] After 15 min of incubation, the enzyme reaction is started by addition of 20 μl of the factor XIa substrate Boc-Glu(OBzl)-Ala-Arg-AMC dissolved in assay buffer (10 μM in assay buffer) from Bachem, the mixture is incubated at room temperature (22° C.) for 30 min and fluorescence is then measured (excitation: 360 nm, emission: 460 nm). The measured emissions of the test batches with test substance are compared to those of control batches without test substance (only dimethyl sulphoxide instead of test substance in dimethyl sulphoxide), and IC50 values are calculated from the concentration/activity relationships.
# plasma = assay: Determination of anticoagulatory activity: activated partial thromboplastin time (aPTT) in plasma; format: biochemical, human; conditions: concentration of test substance which brings about a 1.5-fold extension of the aPTT, C.K. Prest kit, 37° C.
# Protocol: a.4) Determination of Anticoagulatory Activity
# The anticoagulatory activity of the test substances is determined in vitro in human and animal plasma (for example mouse, rat, rabbit, pig and dog plasma). To this end, blood is drawn off in a mixing ratio of sodium citrate/blood of 1:9 using a 0.11 molar sodium citrate solution as receiver. Immediately after the blood has been drawn off, it is mixed thoroughly and centrifuged at about 4000 g for 15 minutes. The supernatant is pipetted off.
# The activated partial thromboplastin time (aPTT) is determined in the presence of varying concentrations of test substance or the corresponding solvent using a commercial test kit (C.K. Prest from Diagnostica Stago). The test compounds are incubated with the plasma and the PTT reagent (cephalin, kaolin) at 37° C. for 3 minutes. Coagulation is then started by addition of a 25 mM aqueous calcium chloride solution, and the time when coagulation occurs is determined. The concentration of test substance which brings about a 1.5-fold extension of the aPTT is determined.
# [1] = factor XIa from Kordia, 15 min preincubation, 30 min at 22° C., fluorescence, read-out: IC50
Compound,IC50 (human factor XIa; [1]),Concentration for 1.5-fold aPTT extension (plasma),IC50 (human factor XIa)
"Cc1cc(S(=O)(=O)NC2CCNCC2)ccc1-c1ccc(C[C@H](NC(=O)[C@H]2CC[C@H](CN)CC2)C(=O)Nc2ccc(-c3nnn[nH]3)cc2)cc1 [Example 1, trans-4-(Aminomethyl)-N-[(2S)-3-[2′-methyl-4′-(piperidin-4-ylsulphamoyl)biphenyl-4-yl]-1-oxo-1-{[4-(1H-tetrazol-5-yl)phenyl]amino}propan-2-yl]cyclohexanecarboxamide hydrochloride]",1.1 nM,0.1 µmol/L,
"NC[C@H]1CC[C@H](C(=O)N[C@@H](Cc2ccc(-c3ccc(N4CCNCC4)cc3)cc2)C(=O)Nc2ccc(-c3nn[nH]n3)cc2)CC1 [Example 2, trans-4-(Aminomethyl)-N-[(2S)-1-oxo-3-[4′-(piperazin-1-yl)biphenyl-4-yl]-1-{[4-(2H-tetrazol-5-yl)phenyl]amino}propan-2-yl]cyclohexanecarboxamide hydrochloride]",4.3 nM,,
"COCCOc1ccc(-c2ccc(C[C@H](NC(=O)[C@H]3CC[C@H](CN)CC3)C(=O)Nc3ccc(-c4nn[nH]n4)cc3)cc2)cc1 [Example 3, trans-4-(Aminomethyl)-N-[(2S)-3-[4′-(2-methoxyethoxy)biphenyl-4-yl]-1-oxo-1-{[4-(2H-tetrazol-5-yl)phenyl]amino}propan-2-yl]cyclohexanecarboxamide hydrochloride]",8.1 nM,,
"CN1CCN(c2ccc(-c3ccc(C[C@H](NC(=O)[C@H]4CC[C@H](CN)CC4)C(=O)Nc4ccc(-c5nn[nH]n5)cc4)cc3)cc2)CC1 [Example 4, trans-4-(Aminomethyl)-N-[(2S)-3-[4′-(4-methylpiperazin-1-yl)biphenyl-4-yl]-1-oxo-1-{[4-(2H-tetrazol-5-yl)phenyl]amino}propan-2-yl]cyclohexanecarboxamide hydrochloride]",18 nM,,
"NC[C@H]1CC[C@H](C(=O)N[C@@H](Cc2ccc(-c3ccc(N4CCOCC4)cc3)cc2)C(=O)Nc2ccc(-c3nn[nH]n3)cc2)CC1 [Example 5, trans-4-(Aminomethyl)-N-[(2S)-3-[4′-(morpholin-4-yl)biphenyl-4-yl]-1-oxo-1-{[4-(2H-tetrazol-5-yl)phenyl]amino}propan-2-yl]cyclohexanecarboxamide hydrochloride]",,,5.7 nM
"NC[C@H]1CC[C@H](C(=O)N[C@@H](Cc2ccc(-c3ccc(N4CCNCC4)cc3)cc2)C(=O)Nc2ccc(-c3noc(=O)[nH]3)cc2)CC1 [Example 6, trans-4-(Aminomethyl)-N-{(2S)-1-oxo-1-{[4-(5-oxo-4,5-dihydro-1,2,4-oxadiazol-3-yl)phenyl]amino}-3-[4′-(piperazin-1-yl)biphenyl-4-yl]propan-2-yl}cyclohexanecarboxamide hydrochloride]",24 nM,,
"COC(=O)c1ccc(-c2ccc(C[C@H](NC(=O)[C@H]3CC[C@H](CN)CC3)C(=O)Nc3ccc(-c4nn[nH]n4)cc3)cc2)cc1 [Example 7, Methyl 4′-[(2S)-2-({[trans-4-(aminomethyl)cyclohexyl]carbonyl}amino)-3-oxo-3-{[4-(2H-tetrazol-5-yl)phenyl]amino}propyl]biphenyl-4-carboxylic acid hydrochloride]",3.6 nM,,
"NC[C@H]1CC[C@H](C(=O)N[C@@H](Cc2ccc(-c3ccc(S(=O)(=O)NC4CCNCC4)cc3C(F)(F)F)cc2)C(=O)Nc2ccc(-c3nn[nH]n3)cc2)CC1 [Example 8, trans-4-(Aminomethyl)-N-[(2S)-1-oxo-3-[4′-(piperidin-4-ylsulphamoyl)-2′-(trifluoromethyl)biphenyl-4-yl]-1-{[4-(2H-tetrazol-5-yl)phenyl]amino}propan-2-yl]cyclohexanecarboxamide hydrochloride]",1 nM,0.08 µmol/L,
"Cc1cc(NC(=O)CNC(=O)CNC(=O)CN)ccc1-c1ccc(C[C@H](NC(=O)[C@H]2CC[C@H](CN)CC2)C(=O)Nc2ccc(-c3nn[nH]n3)cc2)cc1 [Example 9, Glycylglycyl-N-{4′-[(2S)-2-({[trans-4-(aminomethyl)cyclohexyl]carbonyl}amino)-3-oxo-3-{[4-(2H-tetrazol-5-yl)phenyl]amino}propyl]-2-methylbiphenyl-4-yl}glycinamide hydrochloride]",8.4 nM,,
"Cc1cc(S(=O)(=O)NC2CCNC(C)C2)ccc1-c1ccc(C[C@H](NC(=O)[C@H]2CC[C@H](CN)CC2)C(=O)Nc2ccc(-c3nn[nH]n3)cc2)cc1 (stereo partly drawn) [Example 10, trans-4-(Aminomethyl)-N-[(2S)-3-(2′-methyl-4′-{[(2-methylpiperidin-4-yl]sulphamoyl}biphenyl-4-yl)-1-oxo-1-{[4-(2H-tetrazol-5-yl)phenyl]amino}propan-2-yl]cyclohexanecarboxamide hydrochloride]",1.1 nM,0.1 µmol/L,
"COC(=O)c1ccc(-c2ccc(C[C@H](NC(=O)[C@H]3CC[C@H](CN)CC3)C(=O)Nc3ccc(-c4nn[nH]n4)cc3)cc2)c(Cl)c1.Cl [Example 11, Methyl 4′-[(2S)-2-({[trans-4-(aminomethyl)cyclohexyl]carbonyl}amino)-3-oxo-3-{[4-(2H-tetrazol-5-yl)phenyl]amino}propyl]-2-chlorobiphenyl-4-carboxylate hydrochloride]",1.9 nM,0.49 µmol/L,
"Cc1cc(S(=O)(=O)N(C)C)ccc1-c1ccc(C[C@H](NC(=O)[C@H]2CC[C@H](CN)CC2)C(=O)Nc2ccc3c(=O)[nH][nH]c3c2)cc1 [Example 13, trans-4-(Aminomethyl)-N-{(2S)-3-[4′-(dimethylsulphamoyl)-2′-methylbiphenyl-4-yl]-1-oxo-1-[(3-oxo-2,3-dihydro-1H-indazol-6-yl)amino]propan-2-yl}cyclohexanecarboxamide hydrochloride]",3.1 nM,0.07 µmol/L,
"Cc1cc(S(=O)(=O)NC(C)C)ccc1-c1ccc(C[C@H](NC(=O)[C@H]2CC[C@H](CN)CC2)C(=O)Nc2ccc3c(=O)[nH][nH]c3c2)cc1 [Example 14, trans-4-(Aminomethyl)-N-{(2S)-3-[4′-(isopropylsulphamoyl)-2′-methylbiphenyl-4-yl]-1-oxo-1-[(3-oxo-2,3-dihydro-1H-indazol-6-yl)amino]propan-2-yl}cyclohexanecarboxamide hydrochloride]",3.2 nM,,
"Cc1cc(S(=O)(=O)N[C@@H]2CCNC2)ccc1-c1ccc(C[C@H](NC(=O)[C@H]2CC[C@H](CN)CC2)C(=O)Nc2ccc(-c3nn[nH]n3)cc2)cc1 [Example 16, trans-4-(Aminomethyl)-N-[(2S)-3-{2′-methyl-4′-[(3R)-pyrrolidin-3-ylsulphamoyl]biphenyl-4-yl}-1-oxo-1-{[4-(2H-tetrazol-5-yl)phenyl]amino}propan-2-yl]cyclohexanecarboxamide hydrochloride]",1.3 nM,0.11 µmol/L,
"CCN(CC)S(=O)(=O)c1ccc(-c2ccc(C[C@H](NC(=O)[C@H]3CC[C@H](CN)CC3)C(=O)Nc3ccc4c(=O)[nH][nH]c4c3)cc2)c(C)c1 [Example 17, trans-4-(Aminomethyl)-N-{(2S)-3-[4′-(diethylsulphamoyl)-2′-methylbiphenyl-4-yl]-1-oxo-1-[(3-oxo-2,3-dihydro-1H-indazol-6-yl)amino]propan-2-yl}cyclohexanecarboxamide hydrochloride]",3.5 nM,0.13 µmol/L,
"CNS(=O)(=O)c1ccc(-c2ccc(C[C@H](NC(=O)[C@H]3CC[C@H](CN)CC3)C(=O)Nc3ccc4c(=O)[nH][nH]c4c3)cc2)c(C)c1 [Example 18, trans-4-(Aminomethyl)-N-{(2S)-3-[2′-methyl-4′-(methylsulphamoyl)biphenyl-4-yl]-1-oxo-1-[(3-oxo-2,3-dihydro-1H-indazol-6-yl)amino]propan-2-yl}cyclohexanecarboxamide hydrochloride]",5.4 nM,0.13 µmol/L,
"NC[C@H]1CC[C@H](C(=O)N[C@@H](Cc2ccc(-c3ccc(S(=O)(=O)NCCO)cc3)cc2)C(=O)Nc2ccc(-c3nnc(Cl)[nH]3)cc2)CC1 [Example 19, trans-4-(Aminomethyl)-N-[(2S)-1-{[4-(5-chloro-4H-1,2,4-triazol-3-yl)phenyl]amino}-3-{4′-[(2-hydroxyethyl)sulphamoyl]biphenyl-4-yl}-1-oxopropan-2-yl]cyclohexanecarboxamide hydrochloride]",2.3 nM,0.16 µmol/L,
"Cc1cc(S(N)(=O)=O)ccc1-c1ccc(C[C@H](NC(=O)[C@H]2CC[C@H](CN)CC2)C(=O)Nc2ccc(-c3nnc(Cl)[nH]3)cc2)cc1 [Example 20, trans-4-(Aminomethyl)-N-[(2S)-1-{[4-(3-chloro-4H-1,2,4-triazol-5-yl)phenyl]amino}-3-(2′-methyl-4′-sulphamoylbiphenyl-4-yl)-1-oxopropan-2-yl]cyclohexanecarboxamide hydrochloride]",1.8 nM,0.18 µmol/L,
